Source: US5440031A, “1,4,10,13-tetraoxa-7,16-diazacyclooctadecane derivatives, pharmaceutical compositions containing them and their use for the removal of toxic metal ions and radioactive isotopes from living organism” (priority 1990, dated 1995)
“Also recorded” adds a separate entry of the source.

Experiments:
laboratory mice and rats = test: acute toxicity, LD50/30, injection into blood circulation, 30 days observation; format: in vivo, Swiss mice and Wistar rats
Procedure: The acute toxicity values of the products prepared according to Examples 1 to 16 were determined on laboratory mice and rats in the following manner.
Solutions containing the compounds in various concentrations were prepared by using physiological saline solution or glucose solution of 5% by weight concentration and the active agents were administered in various concentrations into the blood circulation of the animals by injecting them slowly during 3 to 5 minutes. Groups consisting of 6 to 10 animals (Swiss mice and Wistar rats of both sexes) each were used for the various dose levels. […] The LD50/30 value (i.e. the dose causing the death of 50% of the experimental animals within 30 days) was determined from the number of animals died during this period by using probit analysis/D. J. Finney: Probit Analysis (2nd ed.) Cambridge University Press (1952)/. These values expressed in mmol/kg of body-weight for the active agents according to the invention are summarized in column (B) of Table 1.

[1] = decorporation investigations by various routes, whole-body activity and deposition in bones; format: in vivo, Swiss mice and Wistar rats; details: decorporating effect; disodium salt
From the text: (§1) The action of the compounds of formula (I) according to the invention, which manifests itself as an increase in the elimination of metal ions damaging the living organism, was investigated by using radioactive strontium or cerium ions on Swiss mice and Wistar rats of both sexes.
(§2) The elimination was studied on radioactive isotopes introduced in various routes to various sites, e.g. to the blood circulation, abdominal cavity, lungs, muscles or subcutaneous connective tissue of the experimental animals. The compound increasing the elimination of the isotopes was administered daily once or two times in the form of an injection, powder or liquid aerosol or plaster to the organism of the experimental animals. Thereafter, whole body activity measurements were performed and retention curves were taken up which then were compared to the results obtained in the control group.
The retention curves obtained were analysed on a computer. "Nonlinear Regression by the Code of BMDP-3R" (BMDP Statistical Software Manual, UCLA, Los Angeles, 1990, Chief Ed. W. J. Dixon) computer software was used for this purpose. It could be stated from the results obtained that the curves could be described by a two-component descending exponential function. Two data were calculated for characterizing the effectivity. […]

[2] = literature; cited from earlier work
[3] = elimination of radioactive strontium introduced through the trachea into the lungs, whole-body retention (FIG. 2); format: in vivo, Wistar rats
From the text: FIGS. 2 & 3 show the percentages of metal ions retained in the body, plotted over 32 days after treatment with compound "b)" of example 6 at both full and double strength, referenced against an untreated control.
a) The whole-body retention curves illustrated in FIG. 2 show the elimination of radioactive strontium introduced through the trachea into the lungs of Wistar rats after intraperitoneal (i.p.) administration of the compound described in Example 6 b). It can be seen from the pattern of the upper curve of FIG. 2 that the radioactive strontium was eliminated to a low grade from the organism of control animals treated only with the solvent. Not more than 30 to 35% of the starting activity were eliminated in the days following the inner contamination. […] The rapid elimination of the isotope was continued in the days following the treatment, and reached 88 to 90% in the once-treated group and 94 to 96% in the twice-treated group. […] The residual activity of 5 to 10% measured as whole-body retention was found in the soft parts and liver of the animals whereas the major part (65 to 70%) of the retention found in the controls were built in to the bones. Similarly advantageous results were obtained by administering the compounds according to the invention in an intravenous route or into the subcutaneous connective tissue.

[4] = radioactive isotope elimination-increasing effect, isotope into abdominal cavity, whole-body retention; format: in vivo, Swiss mice
From the text: as §1, §2
The retention curves obtained were analysed on a computer. "Nonlinear Regression by the Code of BMDP-3R" (BMDP Statistical Software Manual, UCLA, Los Angeles, 1990, Chief Ed. W. J. Dixon) computer software was used for this purpose. It could be stated from the results obtained that the curves could be described by a two-component descending exponential function. Two data were calculated for characterizing the effectivity. One of these was the so-called F factor indicating the increase in the elimination in relation to the control and meaning the multiplication of the isotope elimination under effect of the test compound in relation to the untreated animals/see column (C) in Table 1/.
For the illustrative comparison of the compounds according to the invention additional characteristic data, the so-called EI values are given which were obtained by multiplying the extent of isotope elimination as percentage related to the control group (effectivity, E) with the acute toxicity value (LD50/30, innocuous, I)/see column (D) in Table 1/. Although the EI value is numerically not identical to the therapeutic ratio (safety index), it indicates in all cases to a weak or excellent activity of a product.
The radioactive isotope elimination-increasing effects of compounds prepared according to Examples 1 to 16 were compared on Swiss mice as described hereinafter.
An activity of 37 to 74 kBg (1 to 2 μCi) of radioactive strontium (Sr-85Cl2) or radioactive cerium (Ce-144Cl3), respectively, was administered into the abdominal cavity of the animals which were then divided into treatment groups consisting of 5 to 10 animals each. At 30 to 60 minutes after administration of the isotope, the animals of the treated groups were intravenously (i.v.) given the active agent used in an amount to achieve s concentration of 50 to 100 μmol/kg of body-weight in the animal organism for each treatment. The animals of the control groups were similarly treated with the carrier (sterile physiological saline or glucose solution of 5% by weight concentration) without active agent.
The amount of radioactivity introduced to the animal organism was determined immediately after administration of the isotope, thru these measurements were repeated daily or in every two the or three days in a device constructed for the purpose of the whole-body measurements on small animals. The counts observed were related to the starting activity value of the zero (0) day and a so-called retention/time correlation was obtained by considering the activity retained in the organism. The change of activity of the animal organism in the time is illustrated in FIG. 1 where the time (in days) elapsed after the treatment is shown on the abscissa and the whole-body retention as percentage is plotted on the ordinate. It can be seen that the rate of elimination of Sr-85 administered into the abdominal cavity of control animals was slow: within 1 day only 15%, within 4 days 25% and within 7 days 30% of the activity were eliminated from their organism and the elimination was even more delayed in the later period. […]

## O=C([O-])C(C(=O)[O-])N1CCOCCOCCN(C(C(=O)[O-])C(=O)[O-])CCOCCOCC1.[Ca+2].[Na+].[Na+] [N,N'-bis(dicarboxymethyl)-1,4,10,13-tetraoxa-7,16-diazacyclooctadecane calcium complex disodium salt]
Laboratory mice and rats; in vivo
  toxicity (in words): low toxicity
[1]
  effectivity (in words): particularly outstanding effect; also recorded: high decorporating effectivity

## O=C(O)CN(CCN(CC(=O)O)CC(=O)O)CCN(CC(=O)O)CC(=O)O [diethylenetriaminepentaacetic acid]
[2]
  stability of calcium complexes versus strontium complexes: substantially more stable than their strontium complexes

## O=C(O)CN(CCN(CC(=O)O)CC(=O)O)CC(=O)O [ethylenediaminetetraacetic acid]
[2]
  stability of calcium complexes versus strontium complexes: substantially more stable than their strontium complexes

## N,N'-bis(dicarboxymethyl)-1,4,10,13-tetraoxa-7,16-diazacyclooctadecane calcium complex disodium salt containing disodium hydroxymalonate and sodium chloride [6/b]
[3]; animals killed at the end of the experiment, controls 65 to 70% of retention built in to the bones
  radioactive strontium in the bones: hardly any or no radioactive strontium could be detected
[3]; i.p., once with 50 μmol/kg, control 90%
  whole-body load within 1 day following the treatment, treated once: 20%
[3]; i.p., twice in 3-hour interval, control 90%
  whole-body load within 1 day following the treatment, treated twice: 20%
[4]; effectivity (isotope elimination as % related to control) multiplied by LD50/30, 0-5 weak, 5-50 medium, 50-100 good, above 100 excellent
  EI value: 160.00
[4]; multiplication of isotope elimination relative to untreated animals, i.v. 50 to 100 μmol/kg, 30 to 60 minutes after isotope
  F factor: 4.2
Laboratory mice and rats; dose causing death of 50% of animals within 30 days, slow injection into the blood circulation during 3 to 5 minutes, mice and rats, probit analysis
  Acute toxicity LD50/30: above 3.0 mmol/kg
